Experimental findings from EP2914280B1, “SOMATOSTATIN-DOPAMINE CHIMERIC ANALOGS” (IPSEN PHARMA S.A.S., priority 2012, dated 2014) are described below.

Assay [1] addresses T1, hSSTR2 (Homo sapiens, UniProt P30874).
T1 construct: host or cells: 'Cells expressing hSSTR2'
Description: Somatostatin receptor radioligand binding assay (hSSTR2).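 Further: radioligand displacement on membranes of CHO-K1 cells stably transfected with human SSTR2, specific binding taken as total minus binding left with 1000 nM SRIF-14.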 To be noted: CHO-K1 cell membranes; 0.05 nM [125I-Tyr]-seglitide; 60 minutes at 25°C; read-out: hSSTR2 Ki (nM) ± SEM.

For assay [2], the target named is T2, hSSTR3 (Homo sapiens, UniProt P32745).
T2 construct: expressed in transfected cells; host or cells: CHO-K1 (ATCC), pcDNA3.1, G418-selected clonal line; membranes
T2 sequence (P32745 whole entry): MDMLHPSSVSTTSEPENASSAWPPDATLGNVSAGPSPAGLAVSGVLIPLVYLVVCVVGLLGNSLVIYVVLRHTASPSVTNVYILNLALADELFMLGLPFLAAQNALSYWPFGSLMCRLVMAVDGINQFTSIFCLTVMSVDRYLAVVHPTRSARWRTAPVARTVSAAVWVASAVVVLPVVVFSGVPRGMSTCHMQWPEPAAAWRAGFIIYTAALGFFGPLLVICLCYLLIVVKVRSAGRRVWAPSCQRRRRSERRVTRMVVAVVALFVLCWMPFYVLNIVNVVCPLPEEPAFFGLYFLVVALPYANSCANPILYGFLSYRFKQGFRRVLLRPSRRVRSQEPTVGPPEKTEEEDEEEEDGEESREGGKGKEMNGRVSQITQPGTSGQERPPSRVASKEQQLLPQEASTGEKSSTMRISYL
Description: Somatostatin receptor radioligand binding assay (hSSTR3). To be noted: CHO-K1 cell membranes; 0.05 nM [125I-Tyr11]-SRIF-14; 60 minutes at 25°C; read-out: hSSTR3 Ki (nM) ± SEM. The method, then:
(§1) The affinities of a test compound for the human somatostatin receptors were determined by radioligand binding assays in CHO-K1 cells stably transfected with each of the human somatostatin receptor subtypes, hSSTR1-5. The cDNA coding sequences of hSSTR1 (GenBank accession No. NM_001049.1), hSSTR2 (GenBank accession No. XM_012697.1), hSSTR3 (GenBank accession No. XM_009963.1), hSSTR4 (GenBank accession No. NM_001052.1), and hSSTR5 (GenBank accession No. XM_012565.1) were subcloned into the mammalian expression vector pcDNA3.1 (Life Technologies). Clonal cell lines stably expressing each of the somatostatin receptors were obtained by transfection into CHO-K1 cells (ATCC) and subsequently selected with culture media containing 0.8 mg/mL of G418 (Life Technologies).
(§2) Membranes for in vitro receptor binding assays were obtained by the following procedures. CHO-K1 cells expressing one of the somatostatin receptors were homogenized in ice-cold buffer with 10 mM Tris-HCl, 5 mM EDTA, 3 mM EGTA, 1 mM phenylmethylsuphonyl fluoride, pH 7.6, using Polytron PT10-35GT (Kinematica) at 18,000 rpm for 30 seconds and centrifuged at 500 x g for 10 minutes. The supernatant containing the plasma membranes was centrifuged at 100,000 x g for 30 minutes and the pellet was resuspended in buffer containing 20 mM glycine-glycine, 1 mM MgCl2, 250 mM sucrose, pH 7.2, for storage at -80°C.
(§3) For the hSSTR3 and 4 assays, membranes and various concentrations of test compounds were incubated in 96-well plates for 60 minutes at 25°C with 0.05 nM [^125I-Tyr^11]-SRIF-14 (PerkinElmer Life Science) in 50 mM HEPES, 0.2% BSA, 5 mM MgCl2, 200 KIU/mL trasylol, 0.02 mg/mL bacitracin, and 0.02 mg/mL phenylmethylsuphonyl fluoride, pH 7.5.
(§4) The incubations were terminated by rapid filtration through GF/C glass microfiber filter plates (pre-wet with 0.3% polyethyleneimine and 0.1 % BSA) using a 96-well cell harvester (Brandel). Plates were washed six times with 1 mL/well aliquots of ice-cold buffer containing 50 mM Tris buffer, pH 7.7. Specific binding was defined as the total radioligand bound minus the bound in the presence of 1000 nM SRIF-14.

The target in assay [3] is T1, hSSTR2. Briefly: Intracellular calcium mobilization assay (FLIPR Calcium 4), hSSTR2.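 Further: agonist activity measured in cells expressing hSSTR2, seeded in 384-well plates, loaded with Calcium 4 dye, read-out as rise in intracellular calcium.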 The assay is classed as cell-based. To be noted: receptor not named. Background: A change in cytosolic calcium serves as a functional read-out for many receptors and channels.
Description: (§5) The ability of select compounds according to the present invention to activate hSSTR2 and hDRD2 was determined by the intracellular calcium mobilization assay using FLIPR Calcium 4 assay kit (Molecular Devices).
(§6) Cells expressing hSSTR2 or hDRD2 were plated in 384-well microplates in tissue culture media and incubated for 16-24 hours at 37°C in a humidified atmosphere with 5% CO2. Medium was replaced by loading buffer containing Hank's buffered saline, 20 mM HEPES, 2.5 mM probenecid and Calcium 4 dye, and the plates were incubated at 37°C for 60 minutes.
Assay [4] concerns the target T3, hDRD2 (Homo sapiens, UniProt P14416). Briefly: biochemical. The format is binding. Further details: expressed in transfected cells; host or cells: CHO-K1, pcDNA3.1/GS, zeocin-selected clonal line; membranes. To be noted: CHO-K1 cell membranes; […] [3H]-spiperone; 60 minutes at 25°C; read-out: hDRD2 Ki (nM) ± SEM.
Assay [5] addresses T4, hSSTR1 (Homo sapiens, UniProt P30872).
T4 construct: expressed in transfected cells; host or cells: CHO-K1 (ATCC), pcDNA3.1, G418-selected clonal line; membranes
Description: Somatostatin receptor radioligand binding assay (hSSTR1). To be noted: CHO-K1 cell membranes; 0.05 nM [125I-Tyr11]-SRIF-14; 60 minutes at 25°C; read-out: hSSTR1 Ki (nM) ± SEM.
Description: (§7) The affinities of a test compound for the human somatostatin receptors were determined by radioligand binding assays in CHO-K1 cells stably transfected with each of the human somatostatin receptor subtypes, hSSTR1-5. […] Clonal cell lines stably expressing each of the somatostatin receptors were obtained by transfection into CHO-K1 cells (ATCC) and subsequently selected with culture media containing 0.8 mg/mL of G418 (Life Technologies).
(§8) Membranes for in vitro receptor binding assays were obtained by the following procedures. […] The supernatant containing the plasma membranes was centrifuged at 100,000 x g for 30 minutes and the pellet was resuspended in buffer containing 20 mM glycine-glycine, 1 mM MgCl2, 250 mM sucrose, pH 7.2, for storage at -80°C.
(§9) For the SSTR1, 2 and 5 assays, membranes and various concentrations of test compounds were incubated in 96-well plates for 60 minutes at 25°C with 0.05 nM [^125I-Tyr^11]-SRIF-14 (for hSSTR1; PerkinElmer Life Science), 0.05 nM [^125I-Tyr]-seglitide (for hSSTR2; PerkinElmer Life Science) or 0.05 nM [^125I-Tyr]-[DPhe-cyclo(Cys-Tyr-DTrp-Lys-Val-Cys)-Thr-NH2] (for hSSTR5; PerkinElmer Life Science) in 50 mM HEPES, 0.2% BSA, 0.1 mM MgCl2, pH 7.5.

Assay [6] deals with T3, hDRD2. Briefly: cell-based. Further details: host or cells: 'Cells expressing hDRD2'. To be noted: read-out: hDRD2 %Emax ± SEM.
Description: as §5, §6
The target of assay [7] is T5, hSSTR4 (Homo sapiens, UniProt P31391).
T5 construct: expressed in transfected cells; host or cells: CHO-K1 (ATCC), pcDNA3.1, G418-selected clonal line; membranes
T5 sequence (P31391 whole entry): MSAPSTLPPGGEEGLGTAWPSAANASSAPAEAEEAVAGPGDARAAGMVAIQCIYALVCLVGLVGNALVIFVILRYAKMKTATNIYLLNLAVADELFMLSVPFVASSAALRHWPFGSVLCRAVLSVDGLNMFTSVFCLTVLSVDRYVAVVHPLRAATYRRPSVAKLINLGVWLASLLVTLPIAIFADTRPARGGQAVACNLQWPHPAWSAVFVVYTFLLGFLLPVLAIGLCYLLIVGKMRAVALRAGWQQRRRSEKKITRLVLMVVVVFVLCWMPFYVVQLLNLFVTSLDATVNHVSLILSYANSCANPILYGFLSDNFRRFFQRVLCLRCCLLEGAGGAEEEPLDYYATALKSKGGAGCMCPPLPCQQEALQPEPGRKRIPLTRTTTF
Description: Somatostatin receptor radioligand binding assay (hSSTR4). To be noted: CHO-K1 cell membranes; 0.05 nM [125I-Tyr11]-SRIF-14; 60 minutes at 25°C; read-out: hSSTR4 Ki (nM) ± SEM. Here is the method:
as §1, §2, §3, §4

The target in assay [8] is T6, hSSTR5 (Homo sapiens, UniProt P35346).
T6 construct: expressed in transfected cells; host or cells: CHO-K1 (ATCC), pcDNA3.1, G418-selected clonal line; membranes
T6 sequence (P35346 whole entry): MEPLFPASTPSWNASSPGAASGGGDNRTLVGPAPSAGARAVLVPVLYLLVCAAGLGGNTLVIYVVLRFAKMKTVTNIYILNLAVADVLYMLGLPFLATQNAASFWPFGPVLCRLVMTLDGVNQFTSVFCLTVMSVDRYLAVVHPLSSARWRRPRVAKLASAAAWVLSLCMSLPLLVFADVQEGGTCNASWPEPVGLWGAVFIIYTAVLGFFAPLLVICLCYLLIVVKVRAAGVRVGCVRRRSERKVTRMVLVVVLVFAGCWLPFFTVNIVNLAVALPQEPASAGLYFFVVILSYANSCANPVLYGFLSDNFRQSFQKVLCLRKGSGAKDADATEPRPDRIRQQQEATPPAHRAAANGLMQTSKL
Briefly: Somatostatin receptor radioligand binding assay (hSSTR5). To be noted: CHO-K1 cell membranes; 0.05 nM [125I-Tyr]-[DPhe-cyclo(Cys-Tyr-DTrp-Lys-Val-Cys)-Thr-NH2]; 60 minutes at 25°C; read-out: hSSTR5 Ki (nM) ± SEM.
Description: as §7, §8, §9

The subject of assay [9] is pituitary tumor cells of acromegalic patients presenting with macroadenoma. Briefly: Human pituitary adenoma cell growth hormone release assay. The assay is classed as cell-based. To be noted: incubated for 18 hours; Growth hormone levels in the medium by AlphaLISA; Figure 5. Here is the method:
• Figure 1 is a graph showing the Growth hormone suppressing activity of Compound 4 (see Table I hereinbelow for its chemical name and its corresponding structural representation) on pituitary tumor cells of acromegalic patients presenting with macroadenoma. Various concentrations of Compound 4 were added to the medium and the cells were incubated for 18 hours before measurement of Growth hormone levels in the medium using the AlphaLISA Growth Hormone Immunoassay Research kit (PerkinElmer). • Figure 2 is a graph showing the Growth hormone suppressing activity of Compounds 5 , 6, and 7 (see Table I hereinbelow for their chemical name and their corresponding structural representation) on pituitary tumor cells of acromegalic patients presenting with macroadenoma. Various concentrations of Compounds 5, 6, and 7 were added to the medium and the cells were incubated for 18 hours before measurement of Growth hormone levels in the medium using the AlphaLISA Growth Hormone Immunoassay Research kit (PerkinElmer). • Figure 3 is a graph showing the Growth hormone suppressing activity of Compounds 4, 6, 7, 8, and 9 (see Table I hereinbelow for their chemical name and their corresponding structural representation) on pituitary tumor cells of acromegalic patients presenting with macroadenoma. […]
On the technique in general: In Alpha technology, singlet oxygen from a donor bead excites a nearby acceptor bead.
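Wherever Emax is given: agonist activity at human DRD2 in DRD2-expressing cells, read as intracellular calcium mobilization with a FLIPR Calcium 4 fluorescent dye.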

T3 sequence (P14416 whole entry): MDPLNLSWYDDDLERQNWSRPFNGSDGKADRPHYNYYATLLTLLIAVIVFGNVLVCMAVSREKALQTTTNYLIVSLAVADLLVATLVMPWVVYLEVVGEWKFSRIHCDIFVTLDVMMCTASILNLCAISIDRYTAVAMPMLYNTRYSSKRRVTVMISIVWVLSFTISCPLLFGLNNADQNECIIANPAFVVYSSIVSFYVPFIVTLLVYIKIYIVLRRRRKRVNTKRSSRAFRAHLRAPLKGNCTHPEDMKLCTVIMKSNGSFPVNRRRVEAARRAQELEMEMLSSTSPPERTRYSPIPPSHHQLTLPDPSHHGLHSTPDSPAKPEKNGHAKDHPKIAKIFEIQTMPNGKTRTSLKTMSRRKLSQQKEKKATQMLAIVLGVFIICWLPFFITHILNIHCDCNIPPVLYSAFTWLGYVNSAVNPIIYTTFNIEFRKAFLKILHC
T1 sequence (P30874 whole entry): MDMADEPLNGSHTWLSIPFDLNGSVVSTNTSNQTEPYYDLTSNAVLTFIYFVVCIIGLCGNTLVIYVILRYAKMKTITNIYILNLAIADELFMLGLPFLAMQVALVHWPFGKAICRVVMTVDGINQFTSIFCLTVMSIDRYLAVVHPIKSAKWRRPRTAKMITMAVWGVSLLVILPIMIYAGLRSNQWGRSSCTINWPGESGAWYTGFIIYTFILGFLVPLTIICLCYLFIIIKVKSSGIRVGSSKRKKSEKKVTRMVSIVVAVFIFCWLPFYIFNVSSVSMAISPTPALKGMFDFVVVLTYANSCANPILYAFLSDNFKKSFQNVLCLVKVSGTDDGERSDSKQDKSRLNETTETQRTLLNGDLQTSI
T4 sequence (P30872 whole entry): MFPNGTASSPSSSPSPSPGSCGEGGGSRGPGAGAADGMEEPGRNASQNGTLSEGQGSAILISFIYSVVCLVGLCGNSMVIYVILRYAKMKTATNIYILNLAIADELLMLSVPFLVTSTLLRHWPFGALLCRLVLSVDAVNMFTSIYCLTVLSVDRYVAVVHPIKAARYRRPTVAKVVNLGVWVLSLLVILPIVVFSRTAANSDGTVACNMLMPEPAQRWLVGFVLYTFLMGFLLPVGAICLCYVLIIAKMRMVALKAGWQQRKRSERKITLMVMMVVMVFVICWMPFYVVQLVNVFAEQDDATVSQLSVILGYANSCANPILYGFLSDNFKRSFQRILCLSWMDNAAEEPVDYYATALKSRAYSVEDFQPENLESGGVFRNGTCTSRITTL

Take `C[C@@H](O)[C@@H]1NC(=O)[C@H](CCCCN)NC(=O)[C@@H](Cc2c[nH]c3ccccc23)NC(=O)[C@H](Cc2ccncc2)NC(=O)[C@H](Cc2ccccc2)NC(=O)[C@H](CCCNC(=N)N)NC(=O)[C@H](NC[C@H](Cc2ccc(O)cc2)NC(=O)CSC[C@@H]2C[C@@H]3c4cccc5[nH]cc(c45)C[C@H]3N(C)C2)CCCCNC(=O)[C@H](Cc2ccccc2)NC1=O` [Compound 4, Dop1-Tyr-psi(CH2NH)-cyclo(DLys-Arg-Phe-4Pal-DTrp-Lys-Thr-Phe)]: the Ki in [1] was found to be 0.12 ± 0.01 nM; in assay [2], 10.6 ± 0.5 nM; in assay [4], 182.5 ± 1.7 nM; in assay [5] it was 38.1 ± 12.5 nM; in assay [7] it was 93.5 ± 47.7 nM; in [8], 0.92 ± 0.1 nM. In addition, the “improvement in EC50 and/or %Emax over Reference Compound B” value in assay [3] is “statistically significant improvement in EC50 and/or %Emax”. For the same molecule, the Emax in assay [6] amounted to 106 ± 2.4%. For the same molecule, the “Growth hormone suppressing activity compared to the parent somatostatin analogs” value in [9] is on record as “enhanced Growth hormone suppressing activity”.
`C[C@@H](O)[C@@H]1NC(=O)[C@H](CCCCN)NC(=O)[C@@H](Cc2c[nH]c3ccccc23)NC(=O)[C@H](Cc2ccccc2)NC(=O)[C@H](Cc2ccccc2)NC(=O)[C@H](CCCNC(=N)N)NC(=O)[C@H](NC[C@H](Cc2ccc(O)cc2)NC(=O)CSC[C@@H]2C[C@@H]3c4cccc5[nH]cc(c45)C[C@H]3N(C)C2)CCCCNC(=O)[C@H](Cc2ccc(F)cc2)NC1=O` [Compound 5, Dop1-Tyr-psi(CH2NH)-cyclo(DLys-Arg-Phe-Phe-DTrp-Lys-Thr-4FPhe)]: the Ki amounted to 0.34 ± 0.09 nM in [1]; 1.5 ± 0.3 nM in assay [2]; 28.5 ± 12.8 nM in [4]; 9 ± 0.3 nM in assay [5]; 25.2 ± 9 nM in assay [7]; 1.65 ± 0.8 nM in assay [8]. Also, the “improvement in EC50 and/or %Emax over Reference Compound B” value in assay [3] is given as “statistically significant improvement in EC50 and/or %Emax”. For the same molecule, the Emax in [6] came out at 98.7 ± 2.3%. Also, the “Growth hormone suppressing activity compared to the parent somatostatin analogs” value in [9] is “enhanced Growth hormone suppressing activity”.

By Ki is commonly meant the dissociation constant of the complex between target and ligand, obtained from inhibition or displacement. One may read the Emax as the size of the effect at its maximum, as opposed to the concentration needed.
